Reference: PubChem BioAssay (NCI)
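GI50 is the concentration that inhibits growth by half. TGI: total growth inhibition.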

Experiments:
Test in all cases: inhibition of tumour cell growth, NCI panel, 384-well format
SR leukemia = tested on: SR leukemia
MOLT-4 leukemia = tested on: MOLT-4 leukemia
NCI-H522 lung = tested on: NCI-H522 lung
HCC-2998 colon = tested on: HCC-2998 colon
MDA-MB-468 breast = tested on: MDA-MB-468 breast
COLO 205 colon = tested on: COLO 205 colon
RPMI-8226 leukemia = tested on: RPMI-8226 leukemia
U251 glioblastoma = tested on: U251 glioblastoma
SN12C renal = tested on: SN12C renal
SF-295 CNS = tested on: SF-295 CNS
NCI-H322M lung = tested on: NCI-H322M lung
SNB-75 CNS = tested on: SNB-75 CNS
OVCAR-5 ovarian = tested on: OVCAR-5 ovarian
HL-60(TB) leukemia = tested on: HL-60(TB) leukemia
HS 578T breast = tested on: HS 578T breast
PC-3 prostate = tested on: PC-3 prostate
A549 NSCLC = tested on: A549 NSCLC
LOX IMVI melanoma = tested on: LOX IMVI melanoma
OVCAR-3 ovarian = tested on: OVCAR-3 ovarian
RXF 393 renal = tested on: RXF 393 renal
HT29 colon = tested on: HT29 colon
SF-268 CNS = tested on: SF-268 CNS
IGROV1 ovarian = tested on: IGROV1 ovarian
KM12 colon = tested on: KM12 colon
SF-539 CNS = tested on: SF-539 CNS
786-0 renal = tested on: 786-0 renal
MALME-3M melanoma = tested on: MALME-3M melanoma
SNB-19 CNS = tested on: SNB-19 CNS
UO-31 renal = tested on: UO-31 renal
MDA-MB-231 breast = tested on: MDA-MB-231 breast
OVCAR-8 ovarian = tested on: OVCAR-8 ovarian
OVCAR-4 ovarian = tested on: OVCAR-4 ovarian
CAKI-1 renal = tested on: CAKI-1 renal
CCRF-CEM leukemia = tested on: CCRF-CEM leukemia
NCI-H460 NSCLC = tested on: NCI-H460 NSCLC
TK-10 renal = tested on: TK-10 renal
MCF7 breast = tested on: MCF7 breast
SK-MEL-5 melanoma = tested on: SK-MEL-5 melanoma
SK-OV-3 ovarian = tested on: SK-OV-3 ovarian
NCI-H23 lung = tested on: NCI-H23 lung
M14 melanoma = tested on: M14 melanoma
HCT-15 colon = tested on: HCT-15 colon
UACC-257 melanoma = tested on: UACC-257 melanoma
SK-MEL-2 melanoma = tested on: SK-MEL-2 melanoma
T-47D breast = tested on: T-47D breast
ACHN renal = tested on: ACHN renal
NCI/ADR-RES ovarian = tested on: NCI/ADR-RES ovarian

## C[C@@H]1Cc2c(ccc3[nH]ncc23)[C@@H](c2ccc(NC3CN(CCCF)C3)cn2)N1CC(F)(F)F
SR leukemia
  GI50: 2.18 µM
  TGI: 4.92 µM
MOLT-4 leukemia
  GI50: 3.09 µM
  TGI: 12.8 µM
NCI-H522 lung
  GI50: 11.9 µM
  TGI: 24.3 µM
HCC-2998 colon
  GI50: 13.8 µM
  TGI: 26.8 µM
MDA-MB-468 breast
  GI50: 7.75 µM
  TGI: 20.1 µM
COLO 205 colon
  GI50: 16.1 µM
  TGI: 29.7 µM
RPMI-8226 leukemia
  GI50: 6.32 µM
  TGI: 19.3 µM
U251 glioblastoma
  GI50: 15 µM
  TGI: 28.4 µM
SN12C renal
  GI50: 15.9 µM
  TGI: 30.5 µM
SF-295 CNS
  GI50: 17.7 µM
  TGI: 31.6 µM
NCI-H322M lung
  GI50: 16.4 µM
  TGI: 30.9 µM
SNB-75 CNS
  GI50: 17.6 µM
  TGI: 31.4 µM
OVCAR-5 ovarian
  GI50: 16 µM
  TGI: 30.7 µM
HL-60(TB) leukemia
  GI50: 13.5 µM
  TGI: 26.4 µM
HS 578T breast
  GI50: 13 µM
  TGI: 25.7 µM
PC-3 prostate
  GI50: 14.9 µM
  TGI: 28.6 µM
A549 NSCLC
  GI50: 27.5 µM
  TGI: 77.6 µM
LOX IMVI melanoma
  GI50: 15.8 µM
  TGI: 29.3 µM
OVCAR-3 ovarian
  GI50: 14.5 µM
  TGI: 27.7 µM
RXF 393 renal
  GI50: 4.54 µM
  TGI: 16.1 µM
HT29 colon
  GI50: 14.6 µM
  TGI: 27.9 µM
SF-268 CNS
  GI50: 16.5 µM
  TGI: 30.3 µM
IGROV1 ovarian
  GI50: 14.8 µM
  TGI: 30.1 µM
KM12 colon
  GI50: 15.8 µM
  TGI: 29.8 µM
SF-539 CNS
  GI50: 16.7 µM
  TGI: 30.4 µM
786-0 renal
  GI50: 15.2 µM
  TGI: 28.5 µM
MALME-3M melanoma
  GI50: 13.8 µM
  TGI: 26.7 µM
SNB-19 CNS
  GI50: 23.1 µM
  TGI: 49.8 µM
UO-31 renal
  GI50: 17.6 µM
  TGI: 31.5 µM
MDA-MB-231 breast
  GI50: 14.2 µM
  TGI: 28.7 µM
OVCAR-8 ovarian
  GI50: 15.4 µM
  TGI: 28.9 µM
OVCAR-4 ovarian
  GI50: 19.3 µM
  TGI: 35.7 µM
CAKI-1 renal
  GI50: 13.7 µM
  TGI: 26.7 µM
CCRF-CEM leukemia
  GI50: 5.58 µM
  TGI: 17.4 µM
NCI-H460 NSCLC
  GI50: 15.6 µM
  TGI: 29.3 µM
TK-10 renal
  GI50: 16.6 µM
  TGI: 30.5 µM
MCF7 breast
  GI50: < 0.01 µM
  TGI: 13.5 µM
SK-MEL-5 melanoma
  GI50: 14.8 µM
  TGI: 28 µM
SK-OV-3 ovarian
  GI50: 17.5 µM
  TGI: 31.4 µM
NCI-H23 lung
  GI50: 11.7 µM
  TGI: 24.3 µM
M14 melanoma
  GI50: 16.3 µM
  TGI: 29.9 µM
HCT-15 colon
  GI50: 16.4 µM
  TGI: 30.3 µM
UACC-257 melanoma
  GI50: 13.9 µM
  TGI: 26.9 µM
SK-MEL-2 melanoma
  GI50: 15.8 µM
  TGI: 29.2 µM
T-47D breast
  GI50: 10.9 µM
  TGI: 22.9 µM
ACHN renal
  GI50: 17.5 µM
  TGI: 31.5 µM
NCI/ADR-RES ovarian
  GI50: 23.5 µM
  TGI: 62.6 µM
